# Assay results as given in US20100317593A1, “2,3-DIHYDRO-1H-INDENE COMPOUNDS” (ASTRAZENECA AB, priority 2009, published 2010).
# Molecular target: T1, Glutathione-S-transferase tagged Bir3 domain of cIAP1 (L250-G350) (Homo sapiens, UniProt Q13490)
# T1 construct: The cIAP1 Bir3 domain construct (aa L250-G350) was prepared from a full length cIAP1 clone; made in house; host or cells: Escherichia coli BL21 (DE3), pGEX-6P-1 vector
# Test: Fluorescence polarization assay, cIAP1 Bir3 domain
# Type: binding
# Details: 20 nM cIAP1-Bir3, 2.5 nM AbuRPF-K-5FAM tracer, 20-minute incubation
# Description: Materials: The cIAP1 Bir3 domain construct (aa L250-G350) was prepared from a full length cIAP1 clone (NCBI Reference Sequence: NM_001166.3). PCR was used to generate the Bir3 fragment which was inserted into a pGEX-6P-1 vector (GE LifeSciences) as a BamHI/XhoI fragment. Protein was prepared in Escherichia coli BL21 (DE3) grown at 37° C. containing ampicillin to an OD600 of 0.6. Protein expression was induced by 1 mM isopropyl β-D-1-thiogalactopyranoside (IPTG) for 3.75 hours.
# Cells were lysed by sonication in buffer containing 100 mM Tris (pH 7.5), 150 mM NaCl, 5 mm dithiothreitol (DTT), 50 μM zinc acetate (ZnAc), ethylenediamine tetraacetic acid (EDTA) free Complete protease inhibitors (Roche Applied Science), 100 μg/mL lysozyme, and 0.5% Triton-X100. DNAse was added to the mixture after sonication. Proteins were purified from the soluble fraction using Glutathione Sepharose 4B resin (GE Lifesciences) followed by desalting on a PD-10 column (GE Lifesciences). This was followed by purification over an SEC 200 resin (GE Lifesciences). Final storage buffer consisted of 25 mM Tris, pH 7.5, 200 mM NaCl, 5 mM DTT, 50 uM ZnAc, 10% glycerol.
# The fluorescence polarization assay was developed using Glutathione-S-transferase tagged Bir3 domain of cIAP1 (L250-G350). The tracer used was a synthetic peptide conjugated to 5-carboxyfluorescein (AbuRPF-K-5FAM).
# Methods: Dilutions of cIAP1-Bir3 (20 nM) were added to 2.5 nM of fluorescent peptide tracer in assay buffer (final concentrations of 20 mM HEPES, pH 7.5, 1 mM DTT, 0.005% Tween-20 and 50 mM NaCl) containing various dilutions of binding inhibitors. Samples were read by a Tecan Ultra Evolution (Tecan US Inc, Durham N.C.) after a 20-minute incubation.
# Fluorescence polarization values were plotted as a function of the antagonist concentration and the IC50 values were determined.
# T1 sequence (Q13490 250-350): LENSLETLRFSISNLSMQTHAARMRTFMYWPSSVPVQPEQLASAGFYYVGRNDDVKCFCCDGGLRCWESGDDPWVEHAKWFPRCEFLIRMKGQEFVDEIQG
row,SMILES,IC50
1,"CN[C@@H](C)C(=O)N[C@H](C(=O)N1CCC[C@H]1C(=O)N[C@H]1c2ccccc2C[C@H]1OCC#CC#CCO[C@@H]1Cc2ccccc2[C@@H]1NC(=O)[C@@H]1CCCN1C(=O)[C@@H](NC(=O)[C@H](C)NC)C1CCCCC1)C1CCCCC1 [Example 1, (S,S,2S,2′S)-N,N′-((1S,1′S,2R,2′R)-2,2′-(hexa-2,4-diyne-1,6-diylbis(oxy))bis(2,3-dihydro-1H-indene-2,1-diyl))bis(1-((S)-2-cyclohexyl-2-((S)-2-(methylamino)propanamido)acetyl)pyrrolidine-2-carboxamide)]",12 nM
2,"C#CCO[C@@H]1Cc2ccccc2[C@@H]1NC(=O)[C@@H]1CCCN1C(=O)[C@@H](NC(=O)[C@H](C)NC)C1CCCCC1 [Example 2, (S)-1-((S)-2-cyclohexyl-2-((S)-2-(methylamino)propanamido)acetyl)-N-((1S,2R)-2-(prop-2-ynyloxy)-2,3-dihydro-1H-inden-1-yl)pyrrolidine-2-carboxamide]",15 nM
3,"CN[C@@H](C)C(=O)N[C@H](C(=O)N1CCC[C@H]1C(=O)N[C@H]1c2ccccc2C[C@H]1OCCCCCCO[C@@H]1Cc2ccccc2[C@@H]1NC(=O)[C@@H]1CCCN1C(=O)[C@@H](NC(=O)[C@H](C)NC)C1CCCCC1)C1CCCCC1 [Example 3, (S,S,2S,2′S)-N,N′-((1S,1′S,2R,2′R)-2,2′-(Hexane-1,6-diylbis(oxy))bis(2,3-dihydro-1H-indene-2,1-diyl))bis(1-((S)-2-cyclohexyl-2-((S)-2-(methylamino)propanamido)acetyl)pyrrolidine-2-carboxamide)]",13 nM
4,"CN[C@@H](C)C(=O)N[C@H](C(=O)N1CCC[C@H]1C(=O)N[C@H]1c2ccccc2C[C@@H]1OCC#CC#CCO[C@H]1Cc2ccccc2[C@@H]1NC(=O)[C@@H]1CCCN1C(=O)[C@@H](NC(=O)[C@H](C)NC)C1CCCCC1)C1CCCCC1 [Example 4, (S,S,2S,2′S)-N,N′-((1S,1′S,2S,2′S)-2,2′-(hexa-2,4-diyne-1,6-diylbis(oxy))bis(2,3-dihydro-1H-indene-2,1-diyl))bis(1-((S)-2-cyclohexyl-2-((S)-2-(methylamino)propanamido)acetyl)pyrrolidine-2-carboxamide)]",42.9 nM
